Source: ChEMBL document CHEMBL6074661, “Structural Modification and Pharmacological Evaluation of (Thiadiazol-2-yl)pyrazines as Novel Piezo1 Agonists for the Intervention of Disuse Osteoporosis” (J Med Chem, 2024)
Converted amounts (≈) assume the structure as drawn. The source made the active and inactive calls. The rule behind the calls is not given here.

Experiments:
[1] = target: Piezo-type mechanosensitive ion channel component 1 (Mus musculus) (UniProt E2JF22); experiment: Agonist activity at Piezo1 in mouse C3H 10T1/2 cells assessed as influx of calcium ions by measuring change in ratio of calcium fluorescence at 20 uM incubated for 2 hrs by Cal-bryte 520 AM dye based analysis relative to control; assay type: cell-based
Chain of Piezo-type mechanosensitive ion channel component 1 (Mus musculus) (E2JF22 whole entry): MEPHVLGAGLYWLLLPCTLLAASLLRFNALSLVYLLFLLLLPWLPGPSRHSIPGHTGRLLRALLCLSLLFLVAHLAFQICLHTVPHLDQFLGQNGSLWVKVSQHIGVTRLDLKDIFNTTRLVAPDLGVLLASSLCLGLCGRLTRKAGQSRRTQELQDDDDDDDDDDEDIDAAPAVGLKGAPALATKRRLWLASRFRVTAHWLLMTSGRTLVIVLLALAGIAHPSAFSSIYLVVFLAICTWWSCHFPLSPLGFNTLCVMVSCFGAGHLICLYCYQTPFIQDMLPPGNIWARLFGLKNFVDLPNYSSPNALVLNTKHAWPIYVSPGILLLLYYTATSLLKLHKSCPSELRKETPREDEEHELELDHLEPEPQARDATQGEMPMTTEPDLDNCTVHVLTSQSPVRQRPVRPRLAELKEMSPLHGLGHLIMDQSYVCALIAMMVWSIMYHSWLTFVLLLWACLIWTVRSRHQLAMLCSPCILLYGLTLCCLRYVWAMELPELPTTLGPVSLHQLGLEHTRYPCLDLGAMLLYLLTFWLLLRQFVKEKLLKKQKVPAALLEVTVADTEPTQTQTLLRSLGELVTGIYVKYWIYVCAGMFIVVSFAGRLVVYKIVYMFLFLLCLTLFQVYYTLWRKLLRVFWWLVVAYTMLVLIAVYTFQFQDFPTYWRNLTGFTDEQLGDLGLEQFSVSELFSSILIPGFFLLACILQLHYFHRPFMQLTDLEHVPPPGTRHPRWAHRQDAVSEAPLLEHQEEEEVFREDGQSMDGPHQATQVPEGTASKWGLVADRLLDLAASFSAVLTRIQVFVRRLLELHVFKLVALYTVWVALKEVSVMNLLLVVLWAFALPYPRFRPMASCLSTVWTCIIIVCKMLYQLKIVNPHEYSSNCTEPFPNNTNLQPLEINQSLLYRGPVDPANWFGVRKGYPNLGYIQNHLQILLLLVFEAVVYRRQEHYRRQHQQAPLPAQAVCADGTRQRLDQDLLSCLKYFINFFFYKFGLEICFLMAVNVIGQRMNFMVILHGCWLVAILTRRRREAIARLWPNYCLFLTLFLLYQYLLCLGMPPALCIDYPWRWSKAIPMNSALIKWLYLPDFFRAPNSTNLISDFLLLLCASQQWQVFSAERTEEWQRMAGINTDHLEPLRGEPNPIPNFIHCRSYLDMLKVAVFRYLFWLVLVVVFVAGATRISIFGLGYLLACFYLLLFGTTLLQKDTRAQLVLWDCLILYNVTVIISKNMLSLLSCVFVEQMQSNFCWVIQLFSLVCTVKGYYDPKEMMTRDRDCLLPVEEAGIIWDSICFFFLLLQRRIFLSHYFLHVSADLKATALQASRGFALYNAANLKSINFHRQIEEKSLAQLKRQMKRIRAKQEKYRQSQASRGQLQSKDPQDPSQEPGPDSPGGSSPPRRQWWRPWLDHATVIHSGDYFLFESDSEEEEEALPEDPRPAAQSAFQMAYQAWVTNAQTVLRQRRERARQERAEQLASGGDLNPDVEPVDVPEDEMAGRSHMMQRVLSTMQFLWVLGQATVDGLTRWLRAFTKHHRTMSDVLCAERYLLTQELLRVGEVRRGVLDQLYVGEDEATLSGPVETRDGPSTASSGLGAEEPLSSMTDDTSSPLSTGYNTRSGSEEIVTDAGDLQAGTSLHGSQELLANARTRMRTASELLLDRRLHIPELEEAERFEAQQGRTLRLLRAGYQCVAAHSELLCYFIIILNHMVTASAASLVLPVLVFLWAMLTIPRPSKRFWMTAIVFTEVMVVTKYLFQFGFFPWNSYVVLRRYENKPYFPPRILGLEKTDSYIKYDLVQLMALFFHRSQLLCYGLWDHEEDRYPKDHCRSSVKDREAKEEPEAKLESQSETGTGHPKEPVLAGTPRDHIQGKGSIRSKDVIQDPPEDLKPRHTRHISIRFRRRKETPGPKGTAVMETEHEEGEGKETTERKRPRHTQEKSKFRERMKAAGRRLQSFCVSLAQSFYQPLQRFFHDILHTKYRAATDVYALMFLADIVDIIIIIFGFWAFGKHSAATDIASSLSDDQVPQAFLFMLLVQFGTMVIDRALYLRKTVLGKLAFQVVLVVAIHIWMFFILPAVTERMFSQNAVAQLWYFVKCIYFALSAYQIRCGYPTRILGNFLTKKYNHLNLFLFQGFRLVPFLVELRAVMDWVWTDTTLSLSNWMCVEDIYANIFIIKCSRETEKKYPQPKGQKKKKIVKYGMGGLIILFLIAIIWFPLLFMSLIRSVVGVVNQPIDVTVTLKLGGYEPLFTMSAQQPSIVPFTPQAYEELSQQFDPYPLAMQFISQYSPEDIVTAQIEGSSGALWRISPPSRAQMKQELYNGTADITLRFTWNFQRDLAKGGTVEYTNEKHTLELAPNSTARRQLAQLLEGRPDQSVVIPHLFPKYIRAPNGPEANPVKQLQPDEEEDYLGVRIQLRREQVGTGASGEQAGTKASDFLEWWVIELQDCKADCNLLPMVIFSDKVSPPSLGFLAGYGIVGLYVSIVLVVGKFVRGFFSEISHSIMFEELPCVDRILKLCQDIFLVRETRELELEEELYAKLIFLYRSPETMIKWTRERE

[2] = target: T1, Piezo-type mechanosensitive ion channel component 1 (Mus musculus, UniProt E2JF22); experiment: Agonist activity at Piezo1 in mouse C3H 10T1/2 cells assessed as influx of calcium ions incubated for 2 hrs by Cal-bryte 520 AM dye based analysis; assay type: cell-based
Target sequence in this assay (E2JF22 whole entry): as above

[3] = Aqueous solubility of compound at pH 7.4 incubated for 10 mins by HPLC analysis; assay type: physicochemical; conditions: aqueous medium
[4] = Metabolic stability in dog liver microsomes assessed as half life at 10 uM measured for 60 mins by LC-MS/MS analysis; assay type: ADME, Canis lupus familiaris, Microsome
[5] = Apparent permeability in MDCK cells; assay type: ADME, cell-based, Canis lupus familiaris; conditions: dog
[6] = Metabolic stability in mouse liver microsomes assessed as intrinsic clearance at 10 uM measured for 60 mins by LC-MS/MS analysis; assay type: ADME, Microsome; conditions: read-out: CLH
[7] = Metabolic stability in dog liver microsomes assessed as intrinsic clearance at 10 uM measured for 60 mins by LC-MS/MS analysis; assay type: ADME, Canis lupus familiaris, Microsome; conditions: read-out: CLH
[8] = Metabolic stability in human liver microsomes assessed as intrinsic clearance at 10 uM measured for 60 mins by LC-MS/MS analysis; assay type: ADME, Microsome; conditions: read-out: CLH
[9] = target: T2, Piezo-type mechanosensitive ion channel component 1 (Homo sapiens, UniProt Q92508); experiment: Agonist activity at human Piezo1 transfected in HEK293T cells by FLIPR assay; assay type: cell-based
T2 sequence (Q92508 whole entry): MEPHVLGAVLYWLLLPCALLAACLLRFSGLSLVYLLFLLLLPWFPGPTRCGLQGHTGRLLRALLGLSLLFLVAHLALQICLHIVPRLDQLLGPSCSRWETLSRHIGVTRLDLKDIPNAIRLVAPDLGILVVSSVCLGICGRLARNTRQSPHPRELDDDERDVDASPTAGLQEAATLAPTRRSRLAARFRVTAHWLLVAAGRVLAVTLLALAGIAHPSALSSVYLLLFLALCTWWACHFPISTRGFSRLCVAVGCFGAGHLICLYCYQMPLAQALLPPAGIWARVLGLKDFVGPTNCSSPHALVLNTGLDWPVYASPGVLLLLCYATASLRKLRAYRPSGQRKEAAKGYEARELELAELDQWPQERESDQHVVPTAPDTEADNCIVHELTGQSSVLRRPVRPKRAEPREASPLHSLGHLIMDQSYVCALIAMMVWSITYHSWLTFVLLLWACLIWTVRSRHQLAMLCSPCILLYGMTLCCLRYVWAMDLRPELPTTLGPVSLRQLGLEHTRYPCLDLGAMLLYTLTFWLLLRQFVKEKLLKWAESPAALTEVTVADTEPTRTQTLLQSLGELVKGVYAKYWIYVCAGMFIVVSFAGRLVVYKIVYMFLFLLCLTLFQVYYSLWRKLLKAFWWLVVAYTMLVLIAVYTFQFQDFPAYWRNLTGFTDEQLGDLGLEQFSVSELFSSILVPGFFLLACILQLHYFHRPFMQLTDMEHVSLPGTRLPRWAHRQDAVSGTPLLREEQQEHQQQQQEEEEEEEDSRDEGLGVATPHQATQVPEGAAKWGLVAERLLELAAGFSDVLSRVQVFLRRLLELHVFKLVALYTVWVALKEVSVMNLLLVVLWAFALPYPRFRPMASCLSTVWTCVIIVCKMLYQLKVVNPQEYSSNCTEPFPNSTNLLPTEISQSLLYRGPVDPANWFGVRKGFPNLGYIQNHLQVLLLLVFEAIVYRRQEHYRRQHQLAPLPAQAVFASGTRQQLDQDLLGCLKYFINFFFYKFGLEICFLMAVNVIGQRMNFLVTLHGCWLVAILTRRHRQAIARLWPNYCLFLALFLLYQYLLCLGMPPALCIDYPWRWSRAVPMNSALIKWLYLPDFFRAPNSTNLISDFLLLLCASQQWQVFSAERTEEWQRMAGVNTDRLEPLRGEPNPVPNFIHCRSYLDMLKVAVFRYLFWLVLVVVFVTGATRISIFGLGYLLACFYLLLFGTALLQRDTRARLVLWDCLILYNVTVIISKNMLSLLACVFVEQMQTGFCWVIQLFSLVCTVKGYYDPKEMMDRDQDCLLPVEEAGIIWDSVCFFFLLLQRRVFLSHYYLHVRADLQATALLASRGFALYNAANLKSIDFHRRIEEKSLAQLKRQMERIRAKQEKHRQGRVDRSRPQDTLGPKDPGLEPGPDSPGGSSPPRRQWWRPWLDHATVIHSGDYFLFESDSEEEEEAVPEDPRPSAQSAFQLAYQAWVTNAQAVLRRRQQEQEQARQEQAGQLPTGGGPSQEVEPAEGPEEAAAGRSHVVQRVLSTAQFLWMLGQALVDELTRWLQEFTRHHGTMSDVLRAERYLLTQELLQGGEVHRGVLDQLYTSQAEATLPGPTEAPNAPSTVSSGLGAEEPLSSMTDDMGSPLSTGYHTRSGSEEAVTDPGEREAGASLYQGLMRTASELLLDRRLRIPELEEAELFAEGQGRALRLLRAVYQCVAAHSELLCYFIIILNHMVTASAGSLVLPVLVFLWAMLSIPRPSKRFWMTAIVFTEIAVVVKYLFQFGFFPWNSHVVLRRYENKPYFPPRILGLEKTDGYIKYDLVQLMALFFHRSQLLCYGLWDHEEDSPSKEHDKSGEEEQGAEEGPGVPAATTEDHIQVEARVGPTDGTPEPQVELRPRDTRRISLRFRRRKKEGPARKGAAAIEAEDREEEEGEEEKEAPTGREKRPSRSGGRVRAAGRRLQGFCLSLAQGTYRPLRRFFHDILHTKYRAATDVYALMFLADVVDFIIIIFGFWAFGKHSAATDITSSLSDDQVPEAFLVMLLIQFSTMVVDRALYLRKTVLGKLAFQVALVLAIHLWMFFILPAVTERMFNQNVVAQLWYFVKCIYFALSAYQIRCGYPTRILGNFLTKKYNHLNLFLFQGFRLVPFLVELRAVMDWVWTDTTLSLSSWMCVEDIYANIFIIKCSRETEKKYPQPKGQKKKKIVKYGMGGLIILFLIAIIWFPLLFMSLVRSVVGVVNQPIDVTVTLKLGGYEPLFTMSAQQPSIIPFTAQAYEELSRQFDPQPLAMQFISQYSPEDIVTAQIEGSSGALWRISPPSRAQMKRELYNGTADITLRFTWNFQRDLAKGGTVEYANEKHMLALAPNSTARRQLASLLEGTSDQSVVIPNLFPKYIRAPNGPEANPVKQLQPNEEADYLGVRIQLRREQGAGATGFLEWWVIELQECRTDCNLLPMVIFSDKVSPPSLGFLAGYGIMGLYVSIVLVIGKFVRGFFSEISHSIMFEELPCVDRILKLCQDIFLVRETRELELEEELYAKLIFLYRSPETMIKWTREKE

[10] = Metabolic stability in human liver microsomes assessed as half life at 10 uM measured for 60 mins by LC-MS/MS analysis; assay type: ADME, Microsome
[11] = Metabolic stability in mouse liver microsomes assessed as half life at 10 uM measured for 60 mins by LC-MS/MS analysis; assay type: ADME, Microsome
[12] = target: T1, Piezo-type mechanosensitive ion channel component 1; experiment: Agonist activity at mouse Piezo1 transfected in HEK293T cells expressing PZ1 mutant by fluorescence based assay; assay type: cell-based
Target sequence in this assay (E2JF22 whole entry, looked up): as the sequence (E2JF22 whole entry) above

[13] = Toxicity in hind-limb unloading Sprague-Dawley rat model assessed as change in liver function at 5 uM/kg, ip administered on day 1, 4, 7, 10, 13 and measured on day 14; assay type: organism-based; conditions: in vivo, 336 h, time 14 day
[14] = Toxicity in hind-limb unloading Sprague-Dawley rat model assessed as change in kidney function at 5 uM/kg, ip administered on day 1, 4, 7, 10, 13 and measured on day 14; assay type: organism-based; conditions: in vivo, 336 h, time 14 day
[15] = target: T2, Piezo-type mechanosensitive ion channel component 1; experiment: Potency index, ratio of Yoda1 EC50 to test compound EC50 for agonist activity at Piezo1 (unknown origin); conditions: filed as agonist
Rattus norvegicus [16] = experiment: Inhibition of disuse osteoporosis in hind-limb unloading Sprague-Dawley rat model assessed as increase in bone volume fraction at 5 uM/kg, ip administered on day 1, 4, 7, 10, 13 and measured on day 14 by micro-CT analysis; assay type: functional, organism-based; conditions: time 14.0 day, tested as the 2H-labelled form
BMSC [17] = experiment: Induction of osteogenesis in BMSC cells (unknown origin) assessed as increase in Runx2 mRNA level incubated for 3 days by RT-qPCR analysis; assay type: functional, cell-based; conditions: dose 3-5 µM, time 3.0 day, tested as the 2H-labelled form
BMSC [18] = experiment: Induction of osteogenesis in BMSC cells (unknown origin) assessed as increase in Osx mRNA level at 5 uM incubated for 3 days by RT-qPCR analysis; assay type: functional, cell-based; conditions: time 3.0 day, tested as the 2H-labelled form
Rattus norvegicus [19] = experiment: Induction of osteogenesis in hind-limb unloading Sprague-Dawley rat model assessed as increase in ALP fluorescent area at 5 uM/kg, ip administered on day 1, 4, 7, 10, 13 and measured on day 14 by immunofluorescence based analysis; assay type: functional, organism-based; conditions: time 14.0 day, tested as the 2H-labelled form
Rattus norvegicus [20] = experiment: Inhibition of disuse osteoporosis in hind-limb unloading Sprague-Dawley rat model assessed as decrease in trabecular separation at 5 uM/kg, ip administered on day 1, 4, 7, 10, 13 and measured on day 14 by micro-CT analysis; assay type: functional, organism-based; conditions: time 14.0 day, tested as the 2H-labelled form
[21] = target: Piezo-type mechanosensitive ion channel component 1 (Mus musculus) (UniProt E2JF22); experiment: Potency index, ratio of Yoda1 EC50 to test compound […] for agonist activity at Piezo1 in mouse C3H 10T1/2 cells assessed as influx of calcium ions incubated for 2 hrs by Cal-bryte 520 AM dye based analysis; assay type: cell-based; conditions: filed as agonist, tested as the 2H-labelled form
Rattus norvegicus [22] = experiment: Inhibition of disuse osteoporosis in hind-limb unloading Sprague-Dawley rat model assessed as increase in trabecular number at 5 uM/kg, ip administered on day 1, 4, 7, 10, 13 and measured on day 14 by micro-CT analysis; assay type: functional, organism-based; conditions: time 14.0 day, tested as the 2H-labelled form
[23] = target: Piezo-type mechanosensitive ion channel component 1 (Rattus norvegicus) (UniProt Q0KL00); experiment: Agonist activity at Piezo1 in rat BMSC cells assessed as increase in p-Erk level at 5 uM incubated for 5 mins by Western blot analysis; assay type: cell-based; conditions: filed as activator, tested as the 2H-labelled form

Row | Percent change in calcium fluorescence ratio relative to control ([1]; filed as agonist) | Percent change in calcium fluorescence ratio relative to control [1] | Compound | also measured
1 | 50.4% |  | C[C@@H](O)CNc1cnc(-c2nnc(SCc3ccc4ncoc4c3)s2)cn1 | 
2 | 73.5% |  | C[C@@H](O)CNc1cnc(-c2nnc(SCc3ccc4c(cnn4C)c3)s2)cn1 | 
3 |  | 30.4% | O[C@H]1CCN(c2cnc(-c3nnc(SCc4c(Cl)cccc4Cl)s3)cn2)C1 | 
4 |  | 36% | OC1CN(c2cnc(-c3nnc(SCc4c(Cl)cccc4Cl)s3)cn2)C1 | 
5 |  | 30.7% | Clc1cccc(Cl)c1CSc1nnc(-c2cnccn2)s1 | EC50 [2]: 2.21 µM; solubility at 10 min [3]: 3.9 µM (≈ 1.39 µg/mL); half-life at 10 µM [4]: 1.33 min; Papp [5]: 38 ×10⁻⁶ cm/s; microsomal CLint at 10 µM [6]: > 277 µL/min/mg; microsomal CLint at 10 µM [7]: 1040 µL/min/mg; microsomal CLint at 10 µM [8]: 250 µL/min/mg; EC50 [9]: 17.1 µM; half-life at 10 µM [10]: 5.55 min; half-life at 10 µM [11]: < 5 min
6 |  | 15.4% | C[C@@H](O)CNc1cnc(-c2nnc(SCc3ccc4scnc4c3)s2)cn1 | 
7 | 76.6% |  | C[C@H](O)CNc1cnc(-c2nnc(SCc3c(Cl)cccc3Cl)s2)cn1 | 
8 |  | 8% | Clc1cccc(Cl)c1CSc1nnc(-c2cnc(Br)cn2)s1 | 
9 |  |  | Cc1nnc(CNC(=O)Nc2ccc(C3CCCCC3)cc2)o1 | EC50 [12]: > 150 µM
10 | 41.7% |  | C[C@@H](O)CNc1ncc(-c2nnc(SCc3c(Cl)cccc3Cl)s2)cn1 | 
11 | 71.6% |  | Cn1ncc2cc(CSc3nnc(-c4cnc(N5CCC6(CC5)CNC(=O)C6)cn4)s3)ccc21 | 
12 |  | -8% | FC1(F)CN(c2cnc(-c3nnc(SCc4c(Cl)cccc4Cl)s3)cn2)C1 | 
13 |  |  | NC1=NC(=O)[C@H](CC(=O)Nc2ccc(SC(F)F)cc2)S1 | EC50 [12]: 12.9 µM
14 |  | 35.4% | C[C@@H](O)CNc1cnc(-c2nnc(SCc3ccc4nnn(C)c4c3)s2)cn1 | 
15 | 61.9% |  | C[C@@H](O)CNc1cnc(-c2nnc(SCc3ccccc3Cl)s2)cn1 | 
16 |  |  | [2H]C([2H])(Sc1nnc(-c2cnc(NC[C@@H](C)O)cn2)s1)c1c(Cl)cccc1Cl | EC50 [2]: 44.2 µM; solubility at 10 min [3]: 57.9 µM (≈ 24.9 µg/mL); half-life at 10 µM [4]: 25.5 min; Papp [5]: 21 ×10⁻⁶ cm/s; microsomal CLint at 10 µM [6]: 88.4 µL/min/mg; Activity [13]: Non-toxic; microsomal CLint at 10 µM [7]: 54.4 µL/min/mg; microsomal CLint at 10 µM [8]: 83.2 µL/min/mg; Activity [14]: Non-toxic; half-life at 10 µM [10]: 16.7 min; half-life at 10 µM [11]: 15.7 min
17 | 71.3% |  | C[C@@H](O)CNc1ccc(-c2nnc(SCc3c(Cl)cccc3Cl)s2)nn1 | 
18 | 91.3% |  | CCC(Sc1nnc(-c2cnc(NC[C@@H](C)O)cn2)s1)c1c(Cl)cccc1Cl (stereo partly drawn) | 
19 |  |  | O=C(O)c1ccc(-c2nnc(SCc3c(Cl)cccc3Cl)s2)cc1 | Ratio EC50 [15]: 4
20 | 69.7% |  | C[C@@H](O)CNc1cnc(-c2nnc(SCc3c(Cl)ccnc3Cl)s2)cn1 | 

Row | Percent change in calcium fluorescence ratio relative to control ([1]; filed as agonist) | Percent change in calcium fluorescence ratio relative to control [1] | Compound | also measured
21 |  | 31.2% | O=C1CC2(CCN(c3cnc(-c4nnc(SCc5ccc6ncoc6c5)s4)cn3)CC2)CN1 | 
22 | 74.5% |  | O[C@@H]1CN(c2cnc(-c3nnc(SCc4c(Cl)cccc4Cl)s3)cn2)C[C@@H]1O | 
23 |  | 11.6% | OCC1CN(c2cnc(-c3nnc(SCc4c(Cl)cccc4Cl)s3)cn2)C1 | 
24 | 77.3% |  | O=C1CC2(CCN(c3cnc(-c4nnc(SCc5c(Cl)cccc5Cl)s4)cn3)CC2)CN1 | 
25 |  | 2% | OC1CCN(c2cnc(-c3nnc(SCc4c(Cl)cccc4Cl)s3)cn2)CC1 | 
26 | 91.4% |  | C[C@@H](O)CNc1cnc(-c2nnc(SCc3c(Cl)ccc(F)c3Cl)s2)cn1 | 
27 | 49.7% |  | C[C@@H](O)CNc1cncc(-c2nnc(SCc3c(Cl)cccc3Cl)s2)n1 | 
28 |  | 38.8% | Cn1nnc2ccc(CSc3nnc(-c4cnc(N5CCC6(CC5)CNC(=O)C6)cn4)s3)cc21 | 
29 | 106% |  | C[C@@H](O)CNc1cnc(-c2nnc(SCc3c(Cl)cccc3Cl)s2)cn1 | Activity (Rattus norvegicus [16]): Active; Activity (BMSC [17]): Dose-dependent-effect; Activity (BMSC [18]): Active; Activity (Rattus norvegicus [19]): Active; Activty Reached Almost That Of The Weight-Bearing; Activity (Rattus norvegicus [20]): Active; Percent change in calcium fluorescence ratio relative to control ([1]; filed as agonist, tested as the 2H-labelled form): 170%; Ratio EC50 [21]: 20; Activity (Rattus norvegicus [22]): Active; Activity [23]: Active; The Result Indicates That Compound Emulates Mechanical Stimulation To Activate Piezo1
30 | 45.4% |  | CC(C)(O)[C@H](F)CNc1cnc(-c2nnc(SCc3c(Cl)cccc3Cl)s2)cn1 | 
31 |  | 16.1% | CC1(O)CN(c2cnc(-c3nnc(SCc4c(Cl)cccc4Cl)s3)cn2)C1 | 
32 | 164% |  | CC(Sc1nnc(-c2cnc(NC[C@@H](C)O)cn2)s1)c1c(Cl)cccc1Cl (stereo partly drawn) | 
33 | 64.6% |  | C[C@@H](O)CNc1cnc(-c2nnc(SC(c3c(Cl)cccc3Cl)C3CC3)s2)cn1 (stereo partly drawn) | 
34 |  | 21% | C[C@@H](O)CNc1cnc(-c2nnc(SCc3c(F)cccc3F)s2)cn1 | 
35 |  |  | FC(F)(F)c1cccc(Cl)c1CSc1nnc(-c2cnccn2)o1 | Ratio EC50 [15]: 1.25
36 | 56.3% |  | OCCOCCNc1cnc(-c2nnc(SCc3c(Cl)cccc3Cl)s2)cn1 | 
37 |  | 0.1% | Clc1cccc(Cl)c1CSc1nnc(-c2cnc(N3CC4(COC4)C3)cn2)s1 | 
38 | 65.2% |  | OCCCNc1cnc(-c2nnc(SCc3c(Cl)cccc3Cl)s2)cn1 | 
39 |  | 7.7% | O=C1CC2(CCN(c3cnc(-c4nnc(SCc5ccc6scnc6c5)s4)cn3)CC2)CN1 | 
